Source: patent US8604003B2, “Promoter for hard tissue formation” (Seikagaku Corporation, priority 2005, dated 2013)
“Also recorded” adds a separate entry of the source.

Assays:
Wistar rat [1] = assay: Transplantation under the cranial periosteum on hydroxyapatite carrier, HE staining, formation of hard tissue (bone); assay type: in vivo; settings: 3 mg/ml sample on hydroxyapatite under cranial periosteum, fourth and eighth week
Protocol: (§1) A Wistar rat of 8 weeks of age was subjected to general anesthesia with ethyl carbamate 20 solution at a dose of 0.5 ml per 100 g body weight, and then the forehead skin and periosteum were incised. Each sample to be tested (Hep, 2DSH, 6DSH or NDSH; 100 μl for each) diluted to a concentration of 3 mg/ml with PBS was transplanted under the cranial periosteum. In this case, hydroxyapatite was used as the carrier.
(§2) Specifically, a block of hydroxyapatite (size: 3 mm in length×2 mm in breadth×2 mm in height; adsorbs about 0.1 ml of solution) was soaked for 30 minutes in each sample to be tested of a concentration of 3 mg/ml. It was used for the transplantation.
A substance in which test sample-free PBS was used was used as the control.
Each animal was sacrificed on the fourth week and eighth week after transplantation of the sample to be tested. Then slices of the transplanted parts were prepared and subjected to hematoxylin-eosin staining (HE staining). It was observed under an optical microscope to evaluate degree of the formation of a hard tissue (bone).

Wistar rat [2] = assay: Transplantation under the cranial periosteum, ratio of area of formed bone to hydroxyapatite region (image analysis); assay type: in vivo; settings: 3 mg/ml sample on hydroxyapatite, fourth week and sixth week (FIG. 6)
Protocol: as §1, §2
In the same manner as in the aforementioned “5. Actions on cell differentiation (5)”, slices of the transplanted parts were prepared by sacrificing each animal on the fourth week and sixth week after transplantation of the sample to be tested (n=2 for each group). Ratio of the area of formed bone (hard tissue) to the area of the hydroxyapatite region observed in the image of said slice was analyzed by using an image analyzing software (Scion image; Scion Corporation).

cell strain MC3T3-E1 [3] = assay: Actions on cell growth, cell number by Coulter counter; assay type: cell-based, mouse; settings: 50 μg/ml sample, αMEM containing 2% FBS, days 0, 1, 3, 6 (FIG. 8)
Protocol: (§3) Respective cells were inoculated onto a 24 well culture plate (manufactured by Falcon) in 5×10^3 cells/well portions. Starting on the first day after the inoculation, each sample to be tested (Hep, 2DSH, 6DSH or NDSH) was added to the culture liquid (αMEM containing 2% FBS) to a final concentration of 50 μg/ml. On the zero day, first day, third day and sixth day after addition of the sample to be tested, the number of cells was counted using a Coulter counter (COULTER Z1, manufactured by Coulter Electronics Inc.). A case in which the sample to be tested was not added was used as the control.

cell strain ST2 [4] = assay: as above; assay type: cell-based, mouse; settings: 50 μg/ml sample, αMEM containing 2% FBS, days 0, 1, 3, 6 (FIG. 9)
Protocol: as §3

cell strain MC3T3-E1 [5] = assay: Cellular ALP activity, serum-free medium; assay type: cell-based, mouse; settings: 50 μg/ml sample, serum-free medium (FIG. 4)
Protocol: (§4) A mouse bone marrow-derived mesenchymal cell strain, ST2 cell strain, and a mouse osteoblast-like cell strain having more high differentiation degree, MC3T3-E1 cell strain, (both obtained from RIKEN CELL BANK), were used. In the following, culturing of these cells was carried out all under a condition of 37° C. and 5% CO2. Additionally, antibiotics (100 U/ml in final concentration of penicillin G, 100 μg/ml in final concentration of streptomycin and 250 μg/ml in final concentration of gentamicin) were allowed to coexist in all of the media to be used for the culturing of these cells.
(§5) Cellular ALP activity was measured as the index of cell differentiation. […] On the first week after the cells reached confluent, ALP activity was measured by the following enzymologic method (Bessey-Lowry method).
(§6) After washing the cultured cells with PBS, the cells were disrupted and stirred for 40 seconds in 10 mM Tris-HCl buffer (pH 7.4, 500 μl) using an ultra sonic homogenizer (Handy Sonic model UR-20P; mfd. by Tomy Seiko Co., Ltd.). Next, 25 μl of the sample liquid was added to 125 μl of an ALP buffer (0.1M carbonate buffer pH 9.8, 6.7 mM p-nitrophenyl phosphate, 2 mM MgCl2) and incubated at 37° C. for 30 minutes. After terminating the reaction by adding 125 μL of 0.2 N NaOH, the absorbance at 405 nm was measured by using a microplate reader (Model 550, manufactured by Bio-Rad Laboratories). The calculated ALP activity was shown by unit per the number of cells. Additionally, a case in which the sample to be tested was not added was used as a control.
(§7) The results of adding each sample to be tested (Hep, 2DSH, 6DSH or NDSH) to the cell strain MC3T3-E1 are shown in FIG. 4, and the results of adding each sample to be tested (Hep, 2DSH, 6DSH or NDSH) to the cell strain ST2 are shown in FIG. 5, respectively. In this connection, the calculated ALP activity was shown by a numerical value of cells per DNA weight.

cell strain ST2 [6] = assay: Cellular ALP activity, serum-free medium; assay type: cell-based, mouse; settings: 50 μg/ml sample, serum-free medium (FIG. 5)
Protocol: as §4, §5, §6, §7

Wistar rat [7] = assay: Transplantation under the cranial periosteum, ratio of area of bone tissue to total tissues (image analysis); assay type: in vivo; settings: 3 mg/ml sample on hydroxyapatite, fourth, eighth and twelfth week (FIG. 7)
Protocol: as §1, §2
In the same manner as in the aforementioned “5. Actions on cell differentiation (5)”, slices of the transplanted parts were prepared by sacrificing each animal on the fourth week, eighth week and twelfth week after transplantation of the sample to be tested (n=5 for each group). Ratio of the area of bone tissue to the area of the total tissues observed in the image of the slices of transplanted region was analyzed using an image analyzing software (Scion image; Scion Corporation). In this connection, the bars of respective weeks in FIG. 7 show the results in the control group, 2DSH group, 6DSH group, NDSH group and Hep group, respectively, starting from the left side.

cell strain MC3T3-E1 [8] = assay: Cellular ALP activity (Bessey-Lowry method), 2% FBS-containing αMEM; assay type: cell-based, mouse; settings: 50 μg/ml sample, first week after confluence, vs control without sample (FIG. 1, FIG. 2)
Protocol: as §4
(§8) Cellular ALP activity was measured as the index of cell differentiation. Cells were inoculated onto a 24 well culture plate at a density of 5×10^3 cells/well and cultured by adding 50 μg/ml in final concentration of each sample to 2% FBS-containing αMEM. On the first week after the cells reached confluent, ALP activity was measured by the following enzymologic method (Bessey-Lowry method).
as §6
(§9) The results in which each sample to be tested was added to the cell strain MC3T3-E1 are shown in FIG. 1, and the results in which a sample to be tested (Hep, 2DSH, 6DSH or NDSH) was added to the cell strain MC3T3-E1 are shown in FIG. 2, and the results in which a sample to be tested (Hep, 2DSH, 6DSH or NDSH) was added to the cell strain ST2 are shown in FIG. 3, respectively.

cell strain ST2 [9] = assay: as above; assay type: cell-based, mouse; settings: 50 μg/ml sample, first week after confluence, vs control without sample (FIG. 3)
Protocol: as §4, §8, §6, §9

cell strain MC3T3-E1 [10] = assay: Calcification ability, alizarin staining; assay type: cell-based, mouse; settings: MC3T3-E1, 50 μg/ml sample, first week after confluence
Protocol: as §8
(§10) In order to examine calcification ability of the cells, alizarin staining (ALZ staining; stained in red indicates accelerated calcification) was carried out in accordance with the usual way, in the aforementioned “Actions on cell differentiation (1)” on the first week after the cells reached confluent. The cells were washed with PBS, fixed with 10 neutral-buffered formalin and then stained with 0.01 Alizarin Red S (manufactured by Wako Pure Chemical Industries).

cell strain ST2 [11] = assay: Calcification ability, alizarin staining; assay type: cell-based, mouse; settings: ST2, 50 μg/ml sample, first week after confluence
Protocol: as §8, §10

| Substance | formation of bone (HE staining, optical microscope) (Wistar rat [1]) | ratio of the area of formed bone (hard tissue) to the area of the hydroxyapatite region (Wistar rat [2]) | growth of the cell strain MC3T3-E1 (number of cells) (cell strain MC3T3-E1 [3]) | growth of the cell strain ST2 (number of cells) (cell strain ST2 [4]) | ALP activity of the cell strain MC3T3-E1 under the serum-free condition (cell strain MC3T3-E1 [5]) | ALP activity of the cell strain ST2 under the serum-free condition (cell strain ST2 [6]) | ratio of the area of bone tissue to the area of the total tissues (Wistar rat [7]) | ALP activity of the cell strain MC3T3-E1 (cell strain MC3T3-E1 [8]) | ALP activity of the cell strain ST2 (cell strain ST2 [9]) | formation of calcification matter (alizarin staining) (cell strain MC3T3-E1 [10]) | formation of calcification matter (alizarin staining) (cell strain ST2 [11]) |
| --- | --- | --- | --- | --- | --- | --- | --- | --- | --- | --- | --- |
| 2-O-desulfated heparin [2DSH] | formation of bone was observed; also recorded: Remarkable bone formation | formation of bone (hard tissue) was confirmed within a broad range; also recorded: remarkable | small in comparison with that of Hep; also recorded: suppress growth | accelerated growth | increased the ALP activity; also recorded: particularly effective | increased the ALP activity; also recorded: particularly effective | formation of bone (hard tissue) was confirmed within a broad range; also recorded: remarkable | increased the ALP activity | increased the ALP activity | accelerated formation of calcification matter | accelerated formation of calcification matter; also recorded: strong acceleration |
| 6-O-desulfated heparin [6DSH] | formation of bone was observed | formation of bone (hard tissue) was confirmed within a broad range | small in comparison with that of Hep; also recorded: suppress growth |  | increased the ALP activity | increased the ALP activity | formation of bone (hard tissue) was confirmed within a broad range | increased the ALP activity | increased the ALP activity | accelerated formation of calcification matter | accelerated formation of calcification matter |
| N-desulfated heparin [NDSH] | formation of bone was observed | formation of bone (hard tissue) was confirmed within a broad range; also recorded: remarkable | small in comparison with that of Hep; also recorded: suppress growth |  | increased the ALP activity; also recorded: particularly effective | increased the ALP activity | formation of bone (hard tissue) was confirmed within a broad range; also recorded: remarkable | increased the ALP activity | increased the ALP activity; also recorded: particularly effective | accelerated formation of calcification matter | accelerated formation of calcification matter; also recorded: strong acceleration |
| heparin [reference compound] | formation of bone was observed | formation of bone (hard tissue) was confirmed within a broad range | suppress growth | suppressed it | increased the ALP activity; also recorded: particularly effective | increased the ALP activity | formation of bone (hard tissue) was confirmed within a broad range; also recorded: remarkable | increased the ALP activity; also recorded: particularly effective | increased the ALP activity | accelerated formation of calcification matter | accelerated formation of calcification matter; also recorded: strong acceleration |
